Reference: patent US8987195B2 (priority 2012, dated 2015)
Where two headings read alike, the source gives them in different places.

Experiments:
HCV genotype 1b replicon = assay: HCV replicon assay, genotype 1b replicon EC50; type: cell-based, Hepatitis C virus; conditions: Hepatitis C virus, read-out: EC50 [gt-1b]
Protocol: Measuring Compound Inhibitory Potency (Genotype 1b Replicon EC50 (nM))
Measurement of inhibition by compounds was performed using the HCV replicon system. Several different replicons encoding different HCV genotypes or mutations were used. In addition, potency measurements were made using different formats of the replicon assay, including different ways of measurements and different plating formats. See Jan M. Vrolijk et al., A replicons-based bioassay for the measurement of interferons in patients with chronic hepatitis C, 110 J. VIROLOGICAL METHODS 201 (2003); Steven S. Carroll et al., Inhibition of Hepatitis C Virus RNA Replication by 2′-Modified Nucleoside Analogs, 278(14) J. BIOLOGICAL CHEMISTRY 11979 (2003). However, the underlying principles are common to all of these determinations, and are outlined below.
Stable neomycin phosphotransferase encoding replicon-harboring cell lines were used, so all cell lines were maintained under G418 selection prior to the assay. In some cases the cell lines encoded a luciferase:Neo^r fusion and could be assayed either directly by determination of RNA copy number, or indirectly through measurement of the luciferase activity.
To initiate an assay, replicon cells were plated in the presence of a dilution series of test compound in the absence of G418. Typically, the assays were performed in a 96-well plate format for manual operation, or a 384 well plate in an automated assay. Replicon cells and compound were incubated for 24-48 hours, depending on the assay. At the end of the assay, cells are washed free of media and compound and then lysed. For direct quantitation, RNA levels were measured by ^32P-probe hybridization and protection, or in a TAQMAN based assay and normalized to cellular cyclophilin A RNA levels. In some cases, luciferase activity was measured using a conventional luciferase assay. In all cases EC50 determinations were calculated as a percent of a DMSO control by fitting the data to a four parameter fit function.

[1] = target: HCV NS3/4A protease genotype 1b (Hepatitis C virus genotype 1b, UniProt P26663); assay: HCV NS3/4A protease time-resolved fluorescence (TRF) assay, Ki against genotype 1b; type: biochemical
Method in brief: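 First, protease (genotype 1b 0.2 nM, A156T 0.4 nM, genotype 3a 0.025 nM) is preincubated 30 min with inhibitor. Next, 25 nM TRF substrate starts the reaction, run 2.5 h at room temperature. Finally, europium fluorescence is read and Ki calculated from IC50.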

[2] = IC50 [gt-1b] (nM), NS3/4A genotype 1b, enzyme 0.2 nM, K+ salt
[3] = IC50 [gt-1b] (nM), NS3/4A genotype 1b, enzyme 0.2 nM

Compound	EC50 (HCV genotype 1b replicon; genotype 1b replicon) [nM]	IC50 [1, 3] [nM]	further results
COc1ccc2nc(C(C)C)c3c(c2c1)CC[C@]1(C[C@H]2C(=O)N[C@]4(C(=O)NS(=O)(=O)C5(C)CC5)C[C@H]4/C=C\CCCCC[C@H](NC(=O)OC(C)(C)CCS(C)(=O)=O)C(=O)N2C1)O3 [Example 243, 2-methyl-4-(methylsulfonyl)butan-2-yl [(2R,6S,12Z,13aS,14aR,16aS)-9′-methoxy-14a-{[(1-methylcyclopropyl)sulfonyl]carbamoyl}-5,16-dioxo-5′-(propan-2-yl)-1,1′,2′,5,6,7,8,9,10,11,13a,14,14a,15,16,16a-hexadecahydrospiro[cyclopropa[e]pyrrolo[1,2-a][1,4]diazacyclopentadecine-2,3′-pyrano[2,3-c]quinolin]-6-yl]carbamate]	–	–	EC50 (HCV genotype 1b replicon; genotype 1b replicon, K+ salt): 43 nM; IC50 [1, 2]: 0.012 nM
CC1(S(=O)(=O)NC(=O)[C@@]23C[C@H]2/C=C\CCCCC[C@H](NC(=O)OC2CCCC2)C(=O)N2C[C@@]4(CCc5c(c(C6CC6)nc6ccccc56)O4)C[C@H]2C(=O)N3)CC1 [Example 104, cyclopentyl [(2R,6S,12Z,13aS,14aR,16aS)-5′-cyclopropyl-14a-{[(1-methylcyclopropyl)sulfonyl]carbamoyl}-5,16-dioxo-1,1′,2′,5,6,7,8,9,10,11,13a,14,14a,15,16,16a-hexadecahydrospiro[cyclopropa[e]pyrrolo[1,2-a][1,4]diazacyclopentadecine-2,3′-pyrano[2,3-c]quinolin]-6-yl]carbamate]	1.39	0.013	–
COc1ccc2nc(C3CC3)c3c(c2c1)CC[C@]1(C[C@H]2C(=O)N[C@]4(C(=O)NS(=O)(=O)C5(C)CC5)C[C@H]4/C=C\CCCCC[C@H](NC(=O)O[C@@H](C)C(C)C)C(=O)N2C1)O3 [Example 412, (2S)-3-methylbutan-2-yl [(2R,6S,12Z,13aS,14aR,16aS)-5′-cyclopropyl-9′-methoxy-14a-{[(1-methylcyclopropyl)sulfonyl]carbamoyl}-5,16-dioxo-1,1′,2′,5,6,7,8,9,10,11,13a,14,14a,15,16,16a-hexadecahydrospiro[cyclopropa[e]pyrrolo[1,2-a][1,4]diazacyclopentadecine-2,3′-pyrano[2,3-c]quinolin]-6-yl]carbamate]	–	–	EC50 (HCV genotype 1b replicon; HCV replicon, genotype 1b, K+ salt): 1.42 nM; IC50 ([1]; IC50 [gt-1b], NS3/4A protease TRF assay, genotype 1b enzyme 0.2 nM, K+ salt): 0.038 nM
Cc1nc2cc(Cl)ccc2c2c1O[C@]1(CC2)C[C@H]2C(=O)N[C@]3(C(=O)NS(=O)(=O)C4(C)CC4)C[C@H]3/C=C\CCCCC[C@H](NC(=O)OC(C)C)C(=O)N2C1 [Example 237, propan-2-yl [(2R,6S,12Z,13aS,14aR,16aS)-8′-chloro-5′-methyl-14a-{[(1-methylcyclopropyl)sulfonyl]carbamoyl}-5,16-dioxo-1,1′,2′,5,6,7,8,9,10,11,13a,14,14a,15,16,16a-hexadecahydrospiro[cyclopropa[e]pyrrolo[1,2-a][1,4]diazacyclopentadecine-2,3′-pyrano[2,3-c]quinolin]-6-yl]carbamate]	5.72	0.04	–
CC[C@H](C)OC(=O)N[C@H]1CCCCC/C=C\[C@@H]2C[C@@]2(C(=O)NS(=O)(=O)C2(C)CC2)NC(=O)[C@@H]2C[C@]3(CCc4c(c(C5CC5)nc5ccc(OC)cc45)O3)CN2C1=O [Example 421, (2S)-butan-2-yl [(2R,6S,12Z,13aS,14aR,16aS)-5′-cyclopropyl-9′-methoxy-14a-{[(1-methylcyclopropyl)sulfonyl]carbamoyl}-5,16-dioxo-1,1′,2′,5,6,7,8,9,10,11,13a,14,14a,15,16,16a-hexadecahydrospiro[cyclopropa[e]pyrrolo[1,2-a][1,4]diazacyclopentadecine-2,3′-pyrano[2,3-c]quinolin]-6-yl]carbamate]	–	–	EC50 (HCV genotype 1b replicon; HCV replicon, genotype 1b): 1.72 nM; IC50 ([1]; IC50 [gt-1b], NS3/4A protease TRF assay, genotype 1b enzyme 0.2 nM): 0.024 nM
COc1ccc2nc(C(C)C)c3c(c2c1)C(F)(F)C[C@]1(C[C@H]2C(=O)N[C@]4(C(=O)NS(=O)(=O)C5(C)CC5)C[C@H]4/C=C\CCCCC[C@H](NC(=O)OC(C)(C)CCS(C)(=O)=O)C(=O)N2C1)O3 [Example 245, 2-methyl-4-(methylsulfonyl)butan-2-yl [(2S,6S,12Z,13aS,14aR,16aS)-1′,1′-difluoro-9′-methoxy-14a-{[(1-methylcyclopropyl)sulfonyl]carbamoyl}-5,16-dioxo-5′-(propan-2-yl)-1,1′,2′,5,6,7,8,9,10,11,13a,14,14a,15,16,16a-hexadecahydrospiro[cyclopropa[e]pyrrolo[1,2-a][1,4]diazacyclopentadecine-2,3′-pyrano[2,3-c]quinolin]-6-yl]carbamate]	–	–	EC50 (HCV genotype 1b replicon; genotype 1b replicon, K+ salt): 13.4 nM; IC50 [1, 2]: 0.025 nM
Cc1nc2ccc(C(F)(F)F)cc2c2c1O[C@]1(CC2)C[C@H]2C(=O)N[C@]3(C(=O)NS(=O)(=O)C4(C)CC4)C[C@H]3/C=C\CCCCC[C@H](NC(=O)OC(C)(C)C)C(=O)N2C1 [Example 251, tert-butyl [(2R,6S,12Z,13aS,14aR,16aS)-5′-methyl-14a-{[(1-methylcyclopropyl)sulfonyl]carbamoyl}-5,16-dioxo-9′-(trifluoromethyl)-1,1′,2′,5,6,7,8,9,10,11,13a,14,14a,15,16,16a-hexadecahydrospiro[cyclopropa[e]pyrrolo[1,2-a][1,4]diazacyclopentadecine-2,3′-pyrano[2,3-c]quinolin]-6-yl]carbamate]	14.3	0.021	–
CC1(OC(=O)N[C@H]2CCCCC/C=C\[C@@H]3C[C@@]3(C(=O)NS(=O)(=O)C3(C)CC3)NC(=O)[C@@H]3C[C@]4(CCc5c(c(C6CC6)nc6c(F)cccc56)O4)CN3C2=O)CC1 [Example 168, 1-methylcyclopropyl [(2R,6S,12Z,13aS,14aR,16aS)-5′-cyclopropyl-7′-fluoro-14a-{[(1-methylcyclopropyl)sulfonyl]carbamoyl}-5,16-dioxo-1,1′,2′,5,6,7,8,9,10,11,13a,14,14a,15,16,16a-hexadecahydrospiro[cyclopropa[e]pyrrolo[1,2-a][1,4]diazacyclopentadecine-2,3′-pyrano[2,3-c]quinolin]-6-yl]carbamate]	3.73	0.013	–
Cc1nc2ccc(OC(F)(F)F)cc2c2c1O[C@]1(CC2)C[C@H]2C(=O)N[C@]3(C(=O)NS(=O)(=O)C4(C)CC4)C[C@H]3/C=C\CCCCC[C@H](NC(=O)OC3(C)CCC3)C(=O)N2C1 [Example 174, 1-methylcyclobutyl [(2R,6S,12Z,13aS,14aR,16aS)-5′-methyl-14a-{[(1-methylcyclopropyl)sulfonyl]carbamoyl}-5,16-dioxo-9′-(trifluoromethoxy)-1,1′,2′,5,6,7,8,9,10,11,13a,14,14a,15,16,16a-hexadecahydrospiro[cyclopropa[e]pyrrolo[1,2-a][1,4]diazacyclopentadecine-2,3′-pyrano[2,3-c]quinolin]-6-yl]carbamate]	2.33	0.007	–
COc1ccc2nc(C3CC3)c3c(c2c1)C(F)(F)C[C@]1(C[C@H]2C(=O)N[C@]4(C(=O)NS(=O)(=O)C5(C)CC5)C[C@H]4/C=C\CCCCC[C@H](NC(=O)OC(C)(C)C)C(=O)N2C1)O3 [Example 19, tert-Butyl (2S,6S,13aS,14aR,16aS,Z)-5′-cyclopropyl-1′,1′-difluoro-9′-methoxy-14a-(1-methylcyclopropylsulfonylcarbamoyl)-5,16-dioxo-1′,2′,3,5,6,7,8,9,10,11,13a,14,14a, 15,16,16a-hexadecahydro-1H-spiro[cyclopropa[e]pyrrolo[1,2-a][1,4]diazacyclopentadecine-2,3′-pyrano[2,3-c]quinoline]-6-ylcarbamate]	–	–	EC50 (HCV genotype 1b replicon; genotype 1b replicon, K+ salt): 1.98 nM; IC50 [1, 2]: 0.018 nM
CC(C)(C)NC(=O)N[C@H]1CCCCC/C=C\[C@@H]2C[C@@]2(C(=O)NS(=O)(=O)C2(C)CC2)NC(=O)[C@@H]2C[C@]3(CCc4c(c(-c5cccc(F)c5)nc5ccccc45)O3)CN2C1=O [Example 23, (2R,6S,13aS,14aR,16aS,Z)-6-(3-tert-Butylureido)-5′-(3-fluorophenyl)-N-(1-methylcyclopropylsulfonyl)-5,16-dioxo-1′,2′,3,5,6,7,8,9,10,11,13a,14,14a,15,16,16a-hexadecahydro-1H-spiro[cyclopropa[e]pyrrolo[1,2-a][1,4]diazacyclopentadecine-2,3′-pyrano[2,3-c]quinoline]-14a-carboxamide]	9.13	–	–
